The source of these data is patent US9371335B2, “Spirothienopyran-piperidine derivatives as ORL-1 receptor antagonists for their use in the treatment of alcohol dependence and abuse” (Eli Lilly and Company, priority 2011, dated 2016).

One test relates to P rats. The experiment in a line: Free-choice ethanol self-administration in P rats. In kind it is in vivo, rat. Conditions: for Mean EtOH Consumed in g/kg (Drug-treated) / Reduction vs. Vehicle (EtOH consumed): P rats, 12 hr. The source says:
Free-Choice Ethanol Self-Administration in Alcohol-Preferring Rats: P Rats:
In this procedure (modified from Rodd-Henricks Z A, McKinzie D L, Shaikh S R, Murphy J M, McBride W J, Lumeng L and Li T K (2000) Alcohol deprivation effect is prolonged in the alcohol preferring (P) rat after repeated deprivations. Alcohol Clin Exp Res 24:8-16), female P rats are obtained from a private colony (Taconic, Germantown, N.Y.), individually-housed with food, 15% ethanol (v/v, in water), and water available ad libitum, and maintained on a 12 hr. light/dark cycle (lights off at 16:00). The chambers are equipped with a force transduction system (TSE Systems, Bad Homburg, Germany) attached to the ethanol, water, and food receptacles to enable continuous monitoring of food and liquid consumption. Rats voluntarily consume 15% ethanol with a mean daily intake of roughly 5 g/kg for several months prior to drug testing. Rats are treated orally with vehicle or test compounds in the dose range of 3, 10, or 30 mg/kg (3 mL/kg dose volume, dissolved in a vehicle consisting of 20% Captisol® in 25 mM phosphate buffer at pH=2), or naltrexone (10 mg/kg, 1 mL/kg dose volume, dissolved in water) immediately prior to the onset of the dark cycle, using a within-subjects, crossover design (3-4 day washout between subsequent doses). In a separate experiment, rats receive oral administration of vehicle followed by 4 daily oral doses of vehicle or 30 mg/kg test compound immediately prior to the onset of the dark cycle, using a between-subjects design.

For test [1], the system named is Alcohol-Preferring (P) rats. The experiment in a line: Operant ethanol self-administration in P rats (progressive ratio schedule). In kind it is in vivo, rat. Conditions: female P rats, 10 mg/kg oral. The source says:
Operant Self-Administration in P rats:
Female P rats are obtained and pair-housed from a private colony (Taconic, Germantown, N.Y.). In order to reduce novelty-induced avoidance of ethanol, the water bottle on the homecage is replaced with a bottle containing 15% ethanol in water (v/v, in water) for two days prior to operant training. Throughout the rest of the experiment, rats receive ad libitum access to water and standard laboratory chow, with no further access to ethanol in the homecage.
Rats are trained to press a lever for ethanol reinforcement in daily 30-min sessions conducted in standard rat operant chambers contained within sound-attenuating chambers (MED Associates, Inc., St. Albans, Vt.). The chambers consist of two stainless steel and two clear Plexiglas walls. The floor grid of the operant chambers consists of 0.5 cm diameter stainless steel bars placed approximately 1.5 cm apart. Each operant chamber contains two retractable operant levers located approximately 6 cm above the grid floor and 13 cm apart. A recessed trough is located in the space between the levers, through which a dipper cup (0.1 mL capacity) is raised to deliver response-contingent ethanol (15%, v/v, in water). Upon a reinforced response, a stimulus light is illuminated above the lever on which the response was made throughout the 4-sec dipper cup access. Operation of the stimuli and behavioral responses are controlled and recorded by personal computer for offline analysis (MED Associates, Inc., St. Albans, Vt.).
During operant training, responses on either lever are considered correct responses and are rewarded with 0.1 mL ethanol reinforcement. […] Once stable baseline responding is reached on an FR-1 schedule of reinforcement, the response contingency is increased to FR-2 and then again to FR-3 so that 3 lever presses are required for each reinforcement. […] Specifically, the response requirement is increased as follows: all rats begin each session at an FR-1 schedule of reinforcement; after three reinforcements, the schedule is increased to FR-2; after three reinforcements at that level, the schedule is increased by two to FR-4; after three reinforcements, the schedule is increased by two to FR-6; and so on (see for e.g. Oster S M, Toalston J E, Kuc K A, Pommer T J, Murphy J M, Lumeng L, Bell R L, McBride W J and Rodd Z A (2006) Effects of multiple alcohol deprivations on operant ethanol self-administration by high-alcohol-drinking replicate rat lines. Alcohol 38:155-164). Each session lasts a total of 30 min, after which, all stimuli are turned off and levers are retracted. […] The amount of ethanol consumed is calculated from the number of active lever presses, and converted into g/kg EtOH consumed. Rats receive oral administration of vehicle or test compound in the dose range of 3, 10, or 30 mg/kg (3 mL/kg dose volume, dissolved in a vehicle consisting of 20% Captisol® in 25 mM phosphate buffer at pH=2), or the nonselective opioid receptor antagonist naltrexone (10 mg/kg) as a positive control, 60 min. prior to the session, using a within-subjects, crossover design (3-4 day washout between subsequent doses). On a separate occasion, rats receive oral administration of vehicle or 30 mg/kg test compound (1 mL/kg dose volume, dissolved in a vehicle consisting of 20% Captisol® in 25 mM phosphate buffer), 30 min prior to the session, using a crossover design.

Values joined by “and” are separate entries in the source; they are usually repeats but may differ in a detail not shown here. Identical values can stand only once.

`Cc1nn(-c2c(F)cccc2F)cc1CN1CCC2(CC1)OCC(F)(F)c1cc(Cl)sc12` [Compound 5, 2-chloro-1′-[[l-(2,6-difluorophenyl)-3-methyl-pyrazol-4-yl]methyl]-4,4-difluoro-spiro[5H-thieno[2,3-c]pyran-7,4′-piperidine]]: the “Mean EtOH Consumed in g/kg (Drug-treated)” value in the test on P rats (3 mg/kg oral) came out at 4.39 g/kg; with P rats (10 mg/kg oral), 4.05 g/kg; in the test on P rats (30 mg/kg oral), 3.74 g/kg. The results for the “Reduction vs. Vehicle (EtOH consumed)” value in the test with P rats (3 mg/kg oral), with P rats (10 mg/kg oral) and in the test on P rats (30 mg/kg oral) were 15.0%, 21.5% and 27.6%, respectively. Moreover, the ethanol self-administration entry in the test on P rats (free-choice access, P rats and msP rats, result in words) was “significantly reduce ethanol self-administration”.
Regarding `O=C1CC[C@@]2(O)[C@H]3Cc4ccc(O)c5c4[C@@]2(CCN3CC2CC2)[C@H]1O5` [naltrexone, reference compound], in test [1], the “Reduction vs. Vehicle (lever presses)” value was 75.4%. For the same molecule, in test [1] (30-min progressive ratio session), the “Mean Number of Lever Presses (Drug-treated)” value is listed as 106.33. Further, in the test on P rats (10 mg/kg oral, 10 mg/kg), the “Mean EtOH Consumed in g/kg (Drug-treated)” value is 3.30 g/kg and 2.83 g/kg and 3.31 g/kg; the “Reduction vs. Vehicle (EtOH consumed)” value was 30.2% and 45.0% and 36.0%.
